Target: human P2X3 receptor (Homo sapiens (Human), UniProt P56373)
Assay: Evaluation of human P2X3 receptor inhibitory activity (ATP-induced Fluo-3 fluorescence, FDSS 3000)
Assay type: cell-based
Conditions: C6BU-1 cell transfected with human P2X3 receptor gene
Procedure: The plate was placed in High-Throughput Screening System FDSS 3000 (Hamamatsu Photonics K.K.). […] Five minutes after, 50 nM ATP solution (50 μL) prepared by dilution with the dilution buffer was dispensed through the built-in automatic dispenser, and the measurement of fluorescence intensity was continued for 3 min. For each well, the specific maximum fluorescence intensity was calculated as the ratio of the maximum fluorescence intensity after addition of the ATP solution to the fluorescence intensity at the starting of the measurement. […] FDSS software (Hamamatsu Photonics K.K.) was used for calculation of the specific maximum fluorescence intensity. IC50 was calculated using Microsoft Excel (Microsoft. Corporation) and XLfit (idbs Ltd.)
The aforementioned in mM, μM and nM are each means mmol/L, μmol/L and nmol/L, respectively.
In tables, μM means μmol/L.

Sequence of human P2X3 receptor (P56373 whole entry): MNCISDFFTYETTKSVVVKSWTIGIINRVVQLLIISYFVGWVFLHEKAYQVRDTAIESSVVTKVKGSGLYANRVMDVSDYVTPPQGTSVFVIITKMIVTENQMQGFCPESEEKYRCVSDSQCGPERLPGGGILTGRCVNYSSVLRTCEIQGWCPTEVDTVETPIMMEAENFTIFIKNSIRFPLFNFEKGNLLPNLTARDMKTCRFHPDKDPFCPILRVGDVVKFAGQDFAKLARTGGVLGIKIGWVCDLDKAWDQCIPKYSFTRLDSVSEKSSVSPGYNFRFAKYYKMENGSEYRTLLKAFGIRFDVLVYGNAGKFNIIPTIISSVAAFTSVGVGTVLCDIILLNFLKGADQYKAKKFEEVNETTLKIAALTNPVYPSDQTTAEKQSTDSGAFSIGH

Row | SMILES | IC50 [nM]
1 | COCCC(=O)Nc1cn(Cc2ccc(Cl)cc2)c(Nc2ccc(OC(C)C)c(F)c2)nc1=O [I-240] | 417
2 | COC(=O)c1cccc(Oc2ccc(Nc3ncc(NC(=O)C4CCOCC4)c(=O)n3Cc3ccc(Cl)cc3)cc2)c1 [I-357] | 3
3 | CC(C)Oc1ccc(Nc2ncc(C(=O)NC3CCOCC3)c(=O)n2Cc2ccc(Cl)cc2)cc1F [I-242] | 67
4 | CC(C)Oc1ccc(Nc2cc(=O)n(CC(C)(C)C(=O)O)c(=O)n2Cc2ccc(Cl)cc2)cc1Cl [I-012] | 6
5 | CCOC(=O)/C=C/c1cnc(Nc2ccc(OC(C)C)c(F)c2)n(Cc2ccc(Cl)cc2)c1=O [I-157] | 589
6 | Cc1nc2ccc(Nc3ncc(NC(=O)OC(C)(C)C)c(=O)n3Cc3ccc(Cl)cc3)cc2s1 [I-318] | 9
7 | CC(C)Oc1ccc(Nc2ncc(NC(=O)C3COC(C)(C)OC3)c(=O)n2Cc2ccc(Cl)cc2)cc1F [I-287] | 23
8 | CC(C)Oc1ccc(Nc2ncc(N3CCOCC3)c(=O)n2Cc2ccc(Cl)cc2)cc1F [I-138, 2-(3-fluoro-4-isopropoxyphenylamino)-3-(4-chlorobenzyl)-5-(morpholino)pyrimidine-4(3H)-one] | 201
9 | CCOC(=O)c1c(O)[nH]/c(=N\c2ccc(OC(C)C)cc2)n(Cc2ccc(Cl)cc2)c1=O [I-334] | 188
10 | CC(C)Oc1ccc(Nc2ncc(C(=O)O)c(=O)n2Cc2ccc(Cl)cc2)cc1Cl [I-129] | 490
11 | CSc1ccc(Cn2c(Nc3ccc4nc(C)sc4c3)ncc(NC(=O)C3CCOCC3)c2=O)cc1 [I-312] | 11
12 | CCC1(CC)C(=O)N/C(=N\c2ccc(OC(C)C)cc2)N(Cc2ccc(Cl)cc2)C1=O [I-327] | 867
13 | CC(=O)N1CCC(NC(=O)c2cn(Cc3ccc(Cl)cc3)c(Nc3ccc4nc(C)sc4c3)nc2=O)CC1 [I-302] | 87
14 | CC(C)Oc1ccc(Nc2ncc(NC(=O)CCO)c(=O)n2Cc2ccc(Cl)cc2)cc1F [I-269] | 31
15 | Cc1cc(=O)n(Cc2ccc(Cl)cc2)c(Nc2ccc3nc(C)sc3c2)n1 [I-343] | 694
16 | CC(C)Oc1ccc(Nc2ncc(N)c(=O)n2Cc2ccc(Cl)cc2)cc1F [I-243] | 676
17 | COC(=O)c1cncc(Oc2ccc(Nc3ncc(NC(=O)C4CCOCC4)c(=O)n3Cc3ccc(Cl)cc3)cc2)c1 [I-304] | 2
18 | CNc1ncc(Nc2cccc(C(F)(F)F)c2)c(Cc2ccc(Cl)cc2)n1 [I-190] | 990
19 | CC(C)Oc1ccc(Nc2nc(=O)c3cc(C(F)(F)F)ccc3n2Cc2ccc(Cl)cc2)cc1Cl [I-227, 1-(4-chlorobenzyl)-2-(3-chloro-4-isopropoxyphenylamine)-6-trifluoromethylquinazoline-4(3H)-one] | 974
20 | CC(C)(Cn1c(=O)cc(Nc2cccc(C(F)(F)F)n2)n(Cc2ccc(Cl)cc2)c1=O)C(=O)O [I-114, 1-(4-chlorobenzyl)-3-(2-hydroxycarbonyl-2-methylpropyl)-6-(6-trifluoromethyl-2-pyridylamino)pyrimidine-2,4(1H,3H)-dion] | 160
21 | CCCC(=O)Nc1cnc(Nc2ccc(OC(C)C)c(F)c2)n(Cc2ccc(Cl)cc2)c1=O [I-260] | 15
22 | Cc1nc2ccc(Nc3cc(=O)n(CCOC4CCCCO4)c(=O)n3Cc3ccc(Cl)cc3)cc2s1 (stereo not shown) [I-353] | 9

Row | SMILES | IC50 [nM]
23 | COC(=O)[C@@H](C)Cn1c(=O)cc(Nc2ccc(OC(C)C)cn2)n(Cc2ccc(Cl)cc2)c1=O [I-213] | 427
24 | CC(C)Oc1ccc(Nc2ncc(C(=O)N(C)CCO)c(=O)n2Cc2ccc(Cl)cc2)cc1F [I-156] | 509
25 | CC(C)Oc1ccc(Nc2ncc(N(S(C)(=O)=O)S(C)(=O)=O)c(=O)n2Cc2ccc(Cl)cc2)cc1F [I-253] | 536
26 | COC(=O)[C@@H](C)Cn1c(=O)cc(Nc2ccc(OC(C)C)c(Cl)c2)n(Cc2ccc(Cl)cc2)c1=O [I-095] | 16
27 | CCOC(=O)/C=C/c1cnc(Nc2ccc(OC(C)C)c(Cl)c2)n(Cc2ccc(Cl)cc2)c1=O [I-132, 2-(3-chloro-4-isopropoxyphenylamino)-3-(4-chlorobenzyl)-5-(2-ethoxycarbonylethenyl) pyrimidine-4(3H)-one] | 206
28 | Cc1ccc(Oc2ccc(Nc3ncc(NC(=O)C(CO)CO)c(=O)n3Cc3ccc(Cl)cc3)cc2)cn1 [I-296] | 7
29 | CC(C)Oc1ccc(Nc2cc(=O)n(Cc3ccccc3)cc2C(O)c2ccc(Cl)cc2)cc1Cl (stereo not drawn) [I-068, 4-(3-chloro-4-isopropoxyphenylamino)-1-benzyl-5-(4-chloro-α-hydroxybenzyl)pyridine-2(1H)-one] | 105
30 | CCNc1ccc(Nc2ccc(OC(C)C)cc2)c(Cc2ccc(Cl)cc2)c1 [I-071, 1-(4-chlorobenzyl)-3-ethylamino-6-(4-isopropoxyphenylamino)benzene] | 502
31 | O=C(Nc1cnc(Nc2ccc(Oc3cc[nH]c(=O)c3)cc2)n(Cc2ccc(Cl)cc2)c1=O)C1CCOCC1 [I-244] | 2
32 | COC(=O)CCCn1c(=O)cc(Nc2ccc(OC(C)C)c(Cl)c2)n(Cc2ccc(Cl)cc2)c1=O [I-103] | 14
33 | Cc1nc2ccc(Nc3nc(=O)c(C(=O)NC4CC4)cn3Cc3ccc(Cl)cc3)cc2s1 [I-309] | 61
34 | COC(=O)Cn1c(=O)cc(Nc2ccc(OC(C)C)c(F)c2)n(Cc2ccc(Cl)cc2)c1=O [I-104, 1-(4-chlorobenzyl)-6-(3-fluoro-4-isopropoxyphenylamino)-3-(methoxycarbonylmethyl)pyrimidine-2,4(1H,3H)-dion] | 96
35 | Cc1nc2ccc(Nc3nc(=O)c(C(=O)NN(C)C)cn3Cc3ccc(Cl)cc3)cc2s1 [I-310] | 132
36 | CC(C)Oc1ccc(Nc2ncc(NC(=O)C(C)(C)C#N)c(=O)n2Cc2ccc(Cl)cc2)cc1F [I-290] | 23
37 | COCC(=O)Nc1cnc(Nc2ccc(OC(C)C)c(F)c2)n(Cc2ccc(Cl)cc2)c1=O [I-249] | 35
38 | CC(C)Oc1ccc(/N=c2\[nH]c(O)c(NC(=O)C(C)C)c(=O)n2Cc2ccc(Cl)cc2)cc1 [I-341] | 681
39 | CC(C)Oc1ccc(Nc2cc(=O)n(C[C@H](C)C(=O)O)c(=O)n2Cc2ccc(Cl)cc2)cc1 [I-218] | 55
40 | CCOC(=O)c1cn(Cc2ccccc2)c(=O)cc1Nc1ccc(OC(C)C)c(Cl)c1 [I-046, 4-(3-chloro-4-isopropoxyphenylamino)-1-benzyl-5-(ethoxycarbonyl)pyridine-2(1H)-one] | 395
41 | CCOC(=O)c1cnc(Nc2ccc(OC(C)C)c(Cl)c2)n(Cc2ccc(Cl)cc2)c1=O [I-126] | 50
42 | CC(C)Oc1ccc(Nc2ncc(NC(=O)C(C)C)c(=O)n2Cc2ccc(Cl)cc2)cc1F [I-247] | 19
43 | Cc1cc(Nc2ncc(NC(=O)C3CCOCC3)c(=O)n2Cc2ccc(Cl)cc2)ccc1OC(C)C [I-237] | 13
44 | COC(=O)CCNC(=O)c1c(O)[nH]/c(=N\c2ccc(OC(C)C)cc2)n(Cc2ccc(Cl)cc2)c1=O [I-333, 1-(4-chlorobenzyl)-3-(2-methoxycarbonylethyl)carbamoyl-4-hydroxy-6-(4-isopropoxyphenylimino)-2,3-dihydro-pyrimidine-4-one] | 115

Row | SMILES | IC50 [nM]
45 | CC(C)Oc1ccc(Nc2ncc(C(=O)N[C@@H](C)C(=O)O)c(=O)n2Cc2ccc(Cl)cc2)cc1F [I-201] | 229
46 | COC(=O)[C@H](C)NC(=O)c1cnc(Nc2ccc(OC(C)C)c(F)c2)n(Cc2ccc(Cl)cc2)c1=O [I-164] | 18
47 | CC(=O)OC(C)(C)C(=O)Nc1cnc(Nc2ccc(OC(C)C)c(F)c2)n(Cc2ccc(Cl)cc2)c1=O [I-267] | 25
48 | CC(C)Oc1ccc(Nc2ncc(NC(=O)C3CCOCC3)c(=O)n2Cc2ccc(Cl)cc2)cc1F [I-234, 2-(3-fluoro-4-isopropoxyphenylamino)-3-(4-chlorobenzyl)-5-(tetrahydro-2H-pyrane-4-ylcarbonylamino)pyrimidine-4(3H)-one] | 4
49 | CC(C)Oc1ccc(Nc2ncc(NS(C)(=O)=O)c(=O)n2Cc2ccc(Cl)cc2)cc1F [I-252] | 62
50 | Cc1ccc(Oc2ccc(Nc3ncc(NC(=O)C4COC(C)(C)OC4)c(=O)n3Cc3ccc(Cl)cc3)cc2)cn1 [I-294] | 9
51 | CC(C)Oc1ccc(Nc2ncc(NC(=O)C3CCOCC3)c(=O)n2Cc2ccc(Cl)cc2)cc1 [I-235] | 11
52 | CCc1c(C)nc(Nc2ccc3nc(C)sc3c2)n(Cc2ccc(Cl)cc2)c1=O [I-351] | 146
53 | CC(C)Oc1ccc(Nc2[nH]c(=O)n(C)c(=O)c2Cc2ccc(Cl)cc2)cc1F [I-001] | 901
54 | CC(C)(CN1C(=O)N(Cc2ccc(Cl)cc2)C(Nc2cccc(C(F)(F)F)c2)=CC1O)C(=O)O (stereo not shown) [I-113] | 72
55 | CC(C)NC(=O)c1c(O)[nH]/c(=N\c2ccc(OC(C)C)cc2)n(Cc2ccc(Cl)cc2)c1=O [I-332] | 504
56 | CC(C)Oc1ccc(Nc2ncc(NC(N)=O)c(=O)n2Cc2ccc(Cl)cc2)cc1F [I-277] | 49
57 | CC(=O)Nc1cnc(Nc2ccc(Oc3ccc(C)nc3)cc2)n(Cc2ccc(Cl)cc2)c1=O [I-291] | 43
58 | Cc1nc(Nc2ccc(OC(C)C)cc2)n(Cc2ccc(Cl)cc2)c(=O)c1Cc1ccccc1 [I-330] | 350
59 | CC(C)Oc1ccc(Nc2ncc(C(=O)NNC=O)c(=O)n2Cc2ccc(Cl)cc2)cc1F [I-266] | 55
60 | CC(C)Oc1ccc(Nc2nc(OCCO)c3ccccc3c2C(=O)c2ccc(Cl)cc2)cc1F [I-110, 4-(4-chlorobenzoyl)-3-(3-fluoro-4-isopropoxyphenylamino)-1-(2-hydroxyethoxy)isoquinoline] | 405
61 | CCOC(=O)c1c(C)nc(Nc2ccc3nc(C)sc3c2)n(Cc2ccc(Cl)cc2)c1=O [I-345] | 273
62 | CC(C)Oc1ccc(Nc2ncc(NC(=O)CC3CCOCC3)c(=O)n2Cc2ccc(Cl)cc2)cc1F [I-233] | 49
63 | CCn1c(=O)cc(Nc2ccc(Oc3cncc(C(=O)OC)c3)cc2)n(Cc2ccc(Cl)cc2)c1=O [I-314] | 35
64 | CC(C)Oc1ccc(Nc2ncc(NC(=O)OC(C)(C)C)c(=O)n2Cc2ccc(Cl)cc2)cc1F [I-158] | 20

Reference: patent US9212130B2, “Heterocyclic derivative and pharmaceutical composition comprising the same” (SHIONOGI & CO., LTD., priority 2010, dated 2015)
